Data on 14 compounds can be found in ChEMBL document CHEMBL5244211, “Current anti-diabetic agents and their molecular targets: A review” (Eur J Med Chem, 2018).

The term IC50 denotes the concentration at which inhibition is half-maximal. By EC50 is commonly meant the concentration giving half of the maximal effect.

For assay [1], the target named is T1, Dipeptidyl peptidase 4 (Homo sapiens, UniProt P27487). Briefly: Inhibition of human recombinant DPP4 using H-Gly-Pro-AMC as substrate incubated for 10 mins by microplate reader analysis.
T1 sequence (P27487 whole entry): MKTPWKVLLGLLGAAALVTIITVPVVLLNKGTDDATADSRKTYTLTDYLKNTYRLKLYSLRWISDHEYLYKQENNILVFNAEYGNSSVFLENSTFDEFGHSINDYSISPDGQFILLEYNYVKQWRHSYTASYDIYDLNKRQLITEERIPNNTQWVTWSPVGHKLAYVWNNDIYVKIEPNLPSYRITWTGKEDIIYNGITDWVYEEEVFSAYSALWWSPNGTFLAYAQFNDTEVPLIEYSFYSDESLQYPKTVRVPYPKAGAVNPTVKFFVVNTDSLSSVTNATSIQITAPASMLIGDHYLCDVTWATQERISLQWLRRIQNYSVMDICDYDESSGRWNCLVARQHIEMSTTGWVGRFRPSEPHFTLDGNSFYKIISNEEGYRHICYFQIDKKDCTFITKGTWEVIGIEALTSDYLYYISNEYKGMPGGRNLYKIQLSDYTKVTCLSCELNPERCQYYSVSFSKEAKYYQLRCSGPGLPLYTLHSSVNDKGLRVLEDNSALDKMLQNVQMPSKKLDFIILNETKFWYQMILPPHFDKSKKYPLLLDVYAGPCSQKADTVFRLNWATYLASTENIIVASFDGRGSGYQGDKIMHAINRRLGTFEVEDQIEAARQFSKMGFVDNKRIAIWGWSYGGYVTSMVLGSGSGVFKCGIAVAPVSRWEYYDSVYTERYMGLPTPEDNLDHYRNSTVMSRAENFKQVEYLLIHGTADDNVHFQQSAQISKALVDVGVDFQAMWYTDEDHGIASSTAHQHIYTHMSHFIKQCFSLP
The nature of assay [2]: Inhibition of Calf ALR2 in presence of NADPH by UV spectrophotometric analysis. Further details: species or system Bos taurus.
Assay [3] can be described thus: Inhibition of bovine kidney ALR1 in presence of NADPH by UV spectrophotometric analysis. In kind it is tissue-based, Bos taurus.
For assay [4], the target named is T1, Dipeptidyl peptidase 4. The assay is described as follows: Inhibition of DPP4 (unknown origin).
The species named for another assay is Homo sapiens. The assay is described as follows: Selectivity ratio of IC50 for inhibition of PTP1B (unknown origin) to IC50 for inhibition of TC-PTP (unknown origin).
In assay [5] the target is T2, Tyrosine-protein phosphatase non-receptor type 2 (Homo sapiens, UniProt P17706).
T2 sequence (P17706 whole entry): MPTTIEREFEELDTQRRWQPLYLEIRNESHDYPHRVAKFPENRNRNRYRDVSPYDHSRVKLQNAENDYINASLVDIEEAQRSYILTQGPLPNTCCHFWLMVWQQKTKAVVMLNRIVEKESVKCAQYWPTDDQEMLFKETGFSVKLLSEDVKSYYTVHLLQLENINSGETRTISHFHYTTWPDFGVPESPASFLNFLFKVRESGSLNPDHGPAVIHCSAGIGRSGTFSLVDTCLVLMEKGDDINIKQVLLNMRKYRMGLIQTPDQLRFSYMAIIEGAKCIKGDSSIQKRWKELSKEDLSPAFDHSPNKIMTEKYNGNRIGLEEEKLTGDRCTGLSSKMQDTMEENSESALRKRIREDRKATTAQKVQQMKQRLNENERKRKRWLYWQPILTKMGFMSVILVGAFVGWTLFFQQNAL
The assay is described as follows: Inhibition of TC-PTP (unknown origin) using pNPP as substrate incubated for 5 mins by absorbance based analysis.

Assay [6] addresses T3, Tyrosine-protein phosphatase non-receptor type 1 (Homo sapiens, UniProt P18031).
T3 sequence (P18031 whole entry): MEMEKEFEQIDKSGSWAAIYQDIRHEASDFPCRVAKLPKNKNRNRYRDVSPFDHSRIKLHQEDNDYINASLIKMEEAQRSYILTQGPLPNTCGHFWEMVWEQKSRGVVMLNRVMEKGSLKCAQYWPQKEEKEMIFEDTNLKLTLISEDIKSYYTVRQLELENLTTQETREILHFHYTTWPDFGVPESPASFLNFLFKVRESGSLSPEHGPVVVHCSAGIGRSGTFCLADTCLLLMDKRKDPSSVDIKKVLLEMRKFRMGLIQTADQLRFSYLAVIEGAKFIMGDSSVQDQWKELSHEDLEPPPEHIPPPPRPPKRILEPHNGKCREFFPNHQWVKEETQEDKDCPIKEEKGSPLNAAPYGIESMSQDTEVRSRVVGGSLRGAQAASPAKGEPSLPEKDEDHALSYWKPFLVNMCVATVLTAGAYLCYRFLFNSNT
The assay is described as follows: Inhibition of PTP1B (unknown origin).

Assay [7] has as its target T4, Fructose-1,6-bisphosphatase 1 (Homo sapiens, UniProt P09467).
T4 sequence (P09467 whole entry): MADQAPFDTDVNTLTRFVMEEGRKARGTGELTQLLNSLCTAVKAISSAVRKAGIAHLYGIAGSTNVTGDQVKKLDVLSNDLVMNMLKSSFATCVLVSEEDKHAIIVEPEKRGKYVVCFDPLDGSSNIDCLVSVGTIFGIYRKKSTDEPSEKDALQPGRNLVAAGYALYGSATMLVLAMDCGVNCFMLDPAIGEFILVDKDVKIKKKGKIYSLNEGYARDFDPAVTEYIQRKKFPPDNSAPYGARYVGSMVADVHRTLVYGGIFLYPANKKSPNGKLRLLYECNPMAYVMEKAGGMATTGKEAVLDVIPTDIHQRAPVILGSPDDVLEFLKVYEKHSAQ
The assay is described as follows: Inhibition of FBPase (unknown origin).

Assay [8] deals with Free fatty acid receptor 1 (Homo sapiens, UniProt O14842). The assay is described as follows: Agonist activity at human GPR40 expressed in HEK293 cells incubated for 18 to 24 hrs by HTRF assay. In kind it is cell-based. On the technique in general: In TR-FRET formats the signal depends on donor and acceptor labels being close together.
Free fatty acid receptor 1, sequence (O14842 whole entry): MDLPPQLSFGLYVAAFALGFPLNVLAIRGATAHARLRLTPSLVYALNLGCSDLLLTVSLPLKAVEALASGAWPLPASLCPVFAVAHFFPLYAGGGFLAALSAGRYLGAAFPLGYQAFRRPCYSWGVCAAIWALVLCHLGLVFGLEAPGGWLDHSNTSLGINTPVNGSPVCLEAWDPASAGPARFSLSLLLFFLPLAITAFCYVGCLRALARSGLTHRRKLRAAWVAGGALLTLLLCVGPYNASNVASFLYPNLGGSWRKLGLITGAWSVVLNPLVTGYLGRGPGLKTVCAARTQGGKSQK
In assay [9] the target is T5, Alpha-glucosidase (Saccharomyces cerevisiae S288c) (UniProt P53341+P38158+P07265). The assay is described as follows: Inhibition of Saccharomyces cerevisiae alpha-glucosidase assessed as dissociation rate constant (k1) using p-nitrophenol-alpha-D-glucopyranoside as substrate by Lineweaver-Burk plot analysis. In kind it is protein assay.
A further assay has as its target Alpha-glucosidase (Saccharomyces cerevisiae S288c, UniProt P53341+P38158+P07265). The assay is described as follows: Inhibition of Saccharomyces cerevisiae alpha-glucosidase using p-nitrophenol-alpha-D-glucopyranoside as substrate incubated for 15 mins by spectrophotometric method. In kind it is protein assay.
Assay [10] addresses T5, Alpha-glucosidase (Saccharomyces cerevisiae S288c). The assay is described as follows: Inhibition of Saccharomyces cerevisiae alpha-glucosidase assessed as dissociation rate constant (k2) using p-nitrophenol-alpha-D-glucopyranoside as substrate by Lineweaver-Burk plot analysis. In kind it is protein assay.
For assay [11], the target named is T1, Dipeptidyl peptidase 4. Briefly: Inhibition of DPP4 (unknown origin) using Gly-Pro-AMC as substrate incubated for 20 mins by spectroscopic analysis.
Assay [12] has as its target T6, Glucose-dependent insulinotropic receptor (Homo sapiens, UniProt Q8TDV5).
T6 sequence (Q8TDV5 whole entry): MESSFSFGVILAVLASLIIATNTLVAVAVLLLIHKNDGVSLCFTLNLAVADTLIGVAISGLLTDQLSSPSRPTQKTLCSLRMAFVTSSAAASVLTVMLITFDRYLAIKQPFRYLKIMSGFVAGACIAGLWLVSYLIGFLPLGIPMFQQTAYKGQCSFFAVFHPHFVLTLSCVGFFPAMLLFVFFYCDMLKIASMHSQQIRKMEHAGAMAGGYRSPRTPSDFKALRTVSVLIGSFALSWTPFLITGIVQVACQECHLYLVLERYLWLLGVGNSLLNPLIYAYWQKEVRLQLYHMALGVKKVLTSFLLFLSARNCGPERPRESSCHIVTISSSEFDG
The assay is described as follows: Agonist activity at human GPR119 expressed in CHO-K1 cells assessed as increase in intracellular cAMP level incubated for 5 mins by fluorescence analysis. It counts as cell-based. (cAMP levels reflect the balance of adenylyl cyclase and phosphodiesterase activity.)

Take `NNc1nc(NN)nc(N2C(=O)CSC2=O)n1`: the half-inhibitory concentration (IC50) at Dipeptidyl peptidase 4 [1] worked out at 6250 nM. `CC1=C(CC(=O)O)c2cc(F)ccc2/C1=C\c1ccc([S+](C)[O-])cc1` (centres undefined): the IC50 in assay [2] is 293 nM. For `CCCCNCn1nc(-c2cc3ccccc3oc2=O)oc1=S`, the IC50 in assay [3] was 3360 nM; in assay [2] it was 310 nM. Consider `CC#CCn1c(N2CCC[C@@H](N)C2)cc(=O)n(Cc2nc(C)c3cc(C)ccc3n2)c1=O`, for which the half-inhibitory concentration (IC50) against Dipeptidyl peptidase 4 [4] came to 5.78 nM. `O=C(c1cccc(CN2CCCN(Cc3cccc(C(=O)C(F)(F)P(=O)(O)O)c3)CCN(Cc3cccc(C(=O)C(F)(F)P(=O)(O)O)c3)CCCN(Cc3cccc(C(=O)C(F)(F)P(=O)(O)O)c3)CC2)c1)C(F)(F)P(=O)(O)O`: in the assay filed under Homo sapiens, the Ratio IC50 was found to be 14. Further, in assay [5], the IC50 is 75 nM. Take `CC#CCn1c(N2CCC[C@@H](N)C2)nc2c(C)c(=O)n(Cc3nc(C)c4c(Cl)cccc4n3)c(=O)n21`: the IC50 against Dipeptidyl peptidase 4 [4] turned out to be 0.7 nM.

In assay [6], `O=c1c2cc(O)c(O)cc2oc2cc(O)cc(O)c12` came in with an IC50 of 9200 nM.

Regarding `Cc1ccc(-c2nnc(-c3cccc(NC(=O)CCCCO)c3)o2)cc1`, the IC50 in assay [7] was 5610 nM. Regarding `COc1cc(N2CCC(Oc3ccc(N4N=C(C(F)(F)F)[C@@H](C)C4CC(=O)O)cc3)[C@H](N)C2)c(Cl)cn1` (some centres undefined), in assay [8], the EC50 came to 71 nM. Take `Cc1cc2c(c(=O)[nH]1)C(=O)O/C2=C\c1cc(Br)cs1`: the Kdiss worked out at 0.22 µM in [9] and 0.25 µM in assay [10]. Besides, the IC50 against Alpha-glucosidase amounted to 240 nM. Take `Oc1cc(Cc2cc(O)c(Br)c(Br)c2Br)c(Br)c(Br)c1O`: the concentration for half-maximal inhibition (IC50) in [6] worked out at 2400 nM. In the case of `O=C(CNc1nc(Nc2ccc(S(=O)(=O)Nc3nccs3)cc2)nc(N2CCOCC2)n1)Nc1ccc(F)cc1`, the IC50 against Dipeptidyl peptidase 4 [11] was 2.32 nM. `O=c1[nH]ncn1-c1ccc(-c2ccc(N3CCNCC3)nc2)cc1`: the EC50 in assay [12] was determined as 2.8 nM. Consider `Nc1cc(Cl)ccc1/C(=N/Nc1nc(-c2cc3ccccc3oc2=O)cs1)c1ccccc1`, for which the IC50 was determined as 459 nM in [3] and 110 nM in [2].
